{
  "source": "patent US20250312469A1",
  "about": "(CANGET BIOTEKPHARMA, priority 2024, published 2025)",
  "key": {"SK-ES-1 OS tumors": {"test_system": "SK-ES-1 OS tumors", "assay": "SK-ES-1 osteosarcoma xenograft", "type": "in vivo, SCID mice", "settings": "weekly×4"}, "[1]": {"assay": "Rat toxicology/MTD, non-clinically compatible FL118 HPMC suspension (Covance)", "settings": "for % BW Change (Day 4) / BW Change (Day 4) / Mean body weight Day 1 / Mean body weight Day 4: 3.3 mg/kg/dose", "text": "Twenty male and 20 female Hsd: Sprague Dawley®SDR rats were received from Envigo RMS, Inc. (Indianapolis, Indiana). Animals were acclimated to the test facility for 7 days prior to initiation.\nPrior to group assignment, animals were excluded from the selection pool/sex to produce minimal variation. Animals were assigned to the study using a computerized procedure designed to achieve body weight balance with respect to group assignment with the following experimental design.\nDoses were based on the most recently recorded scheduled body weight. Animals were checked twice daily (a.m. and p.m.) for mortality, abnormalities, and signs of pain or distress. Cage-side observations were conducted for each animal once daily during the dosing phase, except on days when detailed observations were conducted. Abnormal findings were recorded. Detailed observations were conducted for each animal once during the pre-dose phase, and on Days 1, 4 and 8 (prior to dosing, as applicable) of the dosing phase. Detailed observations were also collected for each animal on days of scheduled sacrifice (all surviving animals). On each day of dosing, cage-side observations were conducted for each animal approximately 1, 4, and 24 hours postdose. Postdose observations were based on the time dosing was completed for each group/sex. Body weights were recorded once during the pre-dose phase, and on Days 1, 4, and 8 (prior to dosing, as applicable) of the dosing phase. The amount of food consumed by each cage of was recorded Days 1 to 4, Days 4 to 8, and Days 8 to 9. Blood samples for hematology, coagulation, and clinical chemistry were collected from fasted toxicity animals via a jugular vein. Blood samples were collected on the day of scheduled sacrifice. […] The anticoagulants were sodium citrate for coagulation tests and potassium EDTA for hematology tests. Samples for clinical chemistry were collected without anticoagulant.\nOn Day 10 of the dosing phase, all surviving animals, having been fasted overnight, were anesthetized via isoflurane inhalation, exsanguinated, and necropsied. Terminal body weights were recorded for animals sacrificed at a scheduled interval. A macroscopic examination of the external features of the carcass; external body orifices; abdominal, thoracic, and cranial cavities; organs; and tissues was performed. Organ weights were recorded at the scheduled sacrifice. Paired organs were weighed together. Bone marrow smears (two slides) were prepared from the femur of each animal.\nVarious models of calculators, computers, and computer programs were used to analyze data in this study. Values in some tables (e.g., means, standard deviations, or individual values) may differ slightly from those in other tables, from individually calculated data, or from statistical analysis data, because different models round off or truncate numbers differently. However, neither the integrity nor the interpretation of the data was affected by these differences.\nData for each sex were analyzed separately; only data collected on or after the first day of dosing were analyzed statistically. Analysis of variance (ANOVA) and pairwise comparisons were used to analyze absolute body weight, Body weight change and continuous clinical pathology values. Levene's test was done to test for equality of variances between groups."}, "TA97a": {"test_system": "TA97a", "assay": "Ames Bacterial Reverse Mutation Assay", "settings": "for Background Lawn Code / Colony Counts Average / Colony Counts Replicate 1-3: TA97a"}, "Panc-1 and BxPC-3 cells": {"test_system": "Panc-1 and BxPC-3 cells", "assay": "Cell attachment after FL118 pretreatment", "type": "cell-based, human", "settings": "24 h pretreatment, reseeded", "procedure": "The harvested cells were then reseeded at an expected 30-60% confluence if all cell attached to the cell cultural dish. […] Representative cell attachment images were taken 4-16 hours dependent on control cell attachment speed after cell seeding. Quantitative analysis of non-attached cell numbers was documented in parallel for each condition."}, "[2]": {"target": "T1, bovine serum albumin (BSA) (Bos taurus, UniProt P02769)", "T1 construct": "purchased EMD (Billerica, MA)", "T1 sequence (P02769 25-607)": "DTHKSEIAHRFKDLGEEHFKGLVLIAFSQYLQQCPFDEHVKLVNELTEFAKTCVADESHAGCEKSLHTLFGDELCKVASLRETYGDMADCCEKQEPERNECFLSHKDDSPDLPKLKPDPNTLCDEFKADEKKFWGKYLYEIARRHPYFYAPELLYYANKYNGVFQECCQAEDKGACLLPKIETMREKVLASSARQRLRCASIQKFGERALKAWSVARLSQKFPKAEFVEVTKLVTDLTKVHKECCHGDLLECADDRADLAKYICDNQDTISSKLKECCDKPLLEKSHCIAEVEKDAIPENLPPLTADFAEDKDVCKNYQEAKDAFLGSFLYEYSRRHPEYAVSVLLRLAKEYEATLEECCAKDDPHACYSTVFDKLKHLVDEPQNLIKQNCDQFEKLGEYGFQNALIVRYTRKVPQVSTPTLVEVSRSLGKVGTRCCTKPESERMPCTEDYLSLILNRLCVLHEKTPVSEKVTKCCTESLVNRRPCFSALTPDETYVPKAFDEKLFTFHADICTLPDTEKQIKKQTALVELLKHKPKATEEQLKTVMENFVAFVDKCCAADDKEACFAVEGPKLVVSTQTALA", "assay": "ITC, BSA control protein", "type": "binding", "procedure": "(2) Preparation of Flag-DDX5, Flag-USP2, Flag-UbE2T and Flag-Top1 protein solutions (>360 μL/sample), respectively, containing 10 μM of Flag-DDX5, Flag-USP2, Flag-UbE2T or Flag-Top1 proteins in 1×PBS (pH7.4) and 8% DMSO from protein stocks in 1× PBS (the same solution was also prepared for BSA).\n(3) preparation of washing/diluting solution (>2.5 mL/sample) containing 1× PBS (pH7.4) and 8% DMSO.\n(4) ITC assay was performed using the auto-iTC200 instrument (MicroCal, GE). A protein solution (Flag-DDX5, Flag-USP2, Flag-UbE2T, Flag-Topl or BSA) with defined concentration (10 μM) in a volume of 360 μL in 1×PBS (pH7.4) containing 8% DMSO was loaded into the calorimeter cell as the Macromolecule (M). […] At each injection, the program calculates [M]t and [X]t (total protein and total ligand at that injection). The binding constant (KD)), binding stoichiometry (n), and thermodynamic parameters (AH and AS) were determined by fitting the titration curve to a one-site binding mode, using the Origin software provided by the manufacturer."}, "[3]": {"target": "human serum albumin (HSA) (Homo sapiens, UniProt P02768)", "sequence (P02768 25-609)": "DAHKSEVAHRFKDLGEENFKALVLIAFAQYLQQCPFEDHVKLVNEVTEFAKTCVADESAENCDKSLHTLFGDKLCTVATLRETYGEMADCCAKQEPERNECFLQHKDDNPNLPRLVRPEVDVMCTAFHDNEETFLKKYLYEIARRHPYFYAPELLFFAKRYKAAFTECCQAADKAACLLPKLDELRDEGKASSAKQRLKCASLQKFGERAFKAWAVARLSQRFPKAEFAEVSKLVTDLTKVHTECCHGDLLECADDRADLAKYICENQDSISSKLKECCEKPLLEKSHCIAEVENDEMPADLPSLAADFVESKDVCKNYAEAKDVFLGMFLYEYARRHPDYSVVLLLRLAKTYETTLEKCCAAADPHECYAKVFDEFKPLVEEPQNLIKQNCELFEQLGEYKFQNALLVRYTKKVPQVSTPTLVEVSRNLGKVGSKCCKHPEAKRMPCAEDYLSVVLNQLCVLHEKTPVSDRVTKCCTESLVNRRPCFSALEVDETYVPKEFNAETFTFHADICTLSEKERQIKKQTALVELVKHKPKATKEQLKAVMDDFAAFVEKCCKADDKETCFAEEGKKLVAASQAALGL", "assay": "UV spectra (310-450 nm) with HSA", "type": "physicochemical"}},
  "note": "“And” between values parts separate entries of the source, which are not always exact repeats. Identical values can stand only once. Marks after values point to notes of the source that are not given here.",
  "data": [
    {"smiles": "CCC1(O)C(=O)OCc2c1cc1n(c2=O)Cc2cc3cc4c(cc3nc2-1)OCO4", "note": "(stereo not drawn) [FL118]", "values": [
      {"measurement": "antitumor efficacy", "setting": "SK-ES-1 OS tumors", "result": "effectively eliminated human osteosarcoma xenograft tumors"},
      {"measurement": "% BW Change (Day 4)", "setting": "[1]; Female", "result": "−14", "unit": "%"},
      {"measurement": "BW Change (Day 4)", "setting": "[1]; Female", "result": "−26* g"},
      {"measurement": "Mean body weight Day 1", "setting": "[1]; Female", "result": 192, "unit": "g"},
      {"measurement": "Mean body weight Day 4", "setting": "[1]; Female", "result": "168* g"},
      {"measurement": "% BW Change (Day 4)", "setting": "[1]; Male", "result": "−12", "unit": "%"},
      {"measurement": "BW Change (Day 4)", "setting": "[1]; Male", "result": "−25* g"},
      {"measurement": "Mean body weight Day 1", "setting": "[1]; Male", "result": 207, "unit": "g"},
      {"measurement": "Mean body weight Day 4", "setting": "[1]; Male", "result": "183* g"},
      {"measurement": "highest non-severely toxic dose (HNSTD)", "setting": "[1]; oral, day 1 and day 8", "result": 1.65, "unit": "mg/kg/dose"},
      {"measurement": "whole blood partitioning", "setting": "Blood partitioning; 1 μM", "result": "favorable whole blood partitioning results"},
      {"measurement": "RBC to Plasma Partitioning (KRBC/P)", "setting": "Blood partitioning; human whole blood", "result": 1.04},
      {"measurement": "bacterial strain mutation", "setting": "TA97a", "result": "does not induce"},
      {"measurement": "mean revertant colonies over negative control", "setting": "TA97a; +/− S9", "result": "less than 2 fold"},
      {"measurement": "Background Lawn Code", "setting": "TA97a; 0.010 μM +S9", "result": 1},
      {"measurement": "Colony Counts Average", "setting": "TA97a; 0.010 μM +S9", "result": 141},
      {"measurement": "Colony Counts Replicate 1-3", "setting": "TA97a; 0.010 μM +S9", "result": "123 and 140 and 161"},
      {"measurement": "Background Lawn Code", "setting": "TA97a; 0.010 μM −S9", "result": 1},
      {"measurement": "Colony Counts Average", "setting": "TA97a; 0.010 μM −S9", "result": 101},
      {"measurement": "Colony Counts Replicate 1-3", "setting": "TA97a; 0.010 μM −S9", "result": "108 and 105 and 90"},
      {"measurement": "Background Lawn Code", "setting": "TA97a; 0.10 μM +S9", "result": 1},
      {"measurement": "Colony Counts Average", "setting": "TA97a; 0.10 μM +S9", "result": 172},
      {"measurement": "Colony Counts Replicate 1-3", "setting": "TA97a; 0.10 μM +S9", "result": "189 and 150 and 178"},
      {"measurement": "Background Lawn Code", "setting": "TA97a; 0.10 μM −S9", "result": 1},
      {"measurement": "Colony Counts Average", "setting": "TA97a; 0.10 μM −S9", "result": 95},
      {"measurement": "Colony Counts Replicate 1-3", "setting": "TA97a; 0.10 μM −S9", "result": "116 and 87 and 82"},
      {"measurement": "Background Lawn Code", "setting": "TA97a; 1.0 μM +S9", "result": 1},
      {"measurement": "Colony Counts Average", "setting": "TA97a; 1.0 μM +S9", "result": 142},
      {"measurement": "Colony Counts Replicate 1-3", "setting": "TA97a; 1.0 μM +S9", "result": "140 and 146 and 139"},
      {"measurement": "Background Lawn Code", "setting": "TA97a; 1.0 μM −S9", "result": 1},
      {"measurement": "Colony Counts Average", "setting": "TA97a; 1.0 μM −S9", "result": 119},
      {"measurement": "Colony Counts Replicate 1-3", "setting": "TA97a; 1.0 μM −S9", "result": "111 and 113 and 134"},
      {"measurement": "cell attachment", "setting": "Panc-1 and BxPC-3 cells", "result": "exhibited cell attachment defect"},
      {"measurement": "binding to BSA", "setting": "[2]", "result": "no binding"},
      {"measurement": "interaction with HSA (UV absorbance decrease)", "setting": "[3]; 10 μM in PBS with 4% HSA", "result": "strong interaction"},
      {"measurement": "interaction with HSA (UV absorbance decrease)", "setting": "[3]; 10 μM, high NaCl salt, 4% HSA", "result": "strong interaction"}
    ]}
  ]
}
